Measurements as given in patent US8785388B2, “TAT-BH3 methods for treating arthritis” (Saint Louis University, priority 2007, dated 2014).
Square brackets hold non-standard residues; d marks the D form. Peptide text beside a SMILES is read from it. Orn = NCCC[C@H](N)C(=O)O

Columns and labels:
[1] = tested on: cells that express high levels of Mcl-1; settings: literature statement; cited from earlier work
platelets = settings: literature statement; cited from earlier work
[2] = tested on: K/B×N serum transfer-induced arthritis; assay: K/B×N serum transfer-induced arthritis, ankle circumference (joint swelling); assay type: in vivo, mice
Excerpt: The seven-week-old progeny from homozygous KRN TCR transgenic mice (C57BL/6 background) crossed with non-obese diabetes (NOD) mice (K/B×N) were euthanized, peripheral blood was isolated, and serum were collected and pooled. One hundred and fifty microliters of K/B×N serum were intraperitoneally injected on each flank of 6-week old wt mice.
(§1) At each time point and prior to euthanasia, the degree of arthritis as indicated by joint swelling was quantitated by measuring two perpendicular diameters of the ankles using a caliper (Lange Caliper: Cambridge Scientific Industries, Cambridge Mass.). Joint circumference was calculated using the geometric formula of ellipse circumference (2πX √(a^2+b^2)/2). Following euthanasia, serum was isolated from peripheral blood by cardiac stick and ankle joints were removed. One of the ankle joints was fixed in 10% neutral buffered formalin for 24 hours, decalcified in EDTA-decalcification buffer for two weeks, embedded in paraffin, and sectioned. The other ankle joint was placed in liquid nitrogen, grounded into a fine powder by mortal and pestle, digested in protein lysis buffer ([…], 0.5% NP-40, 50 mM Tris, and 2 mM EDTA) in the presence of phosphatase and protease inhibitors, and homogenized on ice for 20 seconds. To examine any toxicity due to systemic delivery of TAT-Bim peptides, alkaline phosphatase (ALP), […] (AST), alanine aminotransferase (ALT), and blood urea nitrogen levels were measured.
Therefore, peptides to the BH3 domain of Bim were used that are fused to polycationic peptide derived from HIV-1 TAT. These peptides have shown to activate Bak and Bax, suppress Bcl-2 and Mcl-1, induce mitochondrial permeability, and release mitochondrial cytochrome c. Mice were intraperitoneally injected with K/B×N serum to induce the effector phase of inflammatory arthritis.

[3] = tested on: K/B×N serum transfer-induced arthritis; assay: Histopathological scoring of ankle sections (H&E, safranin O/methyl green); assay type: in vivo, mice; settings: saline vs TAT-inactive BH3
Method: (§2) Paraffin embedded ankle or liver sections were stained with hematoxylin and eosin (H&E), Safranin O and methyl green. Histopathological scoring was performed and ankle sections were evaluated by examining at least 3 sections/ankle and 3 fields/section at 400× magnification. H&E ankle sections were scored on a 0-5 scale for inflammation, with 0=normal, 1=minimal infiltration, 2=mild infiltration, 3=moderate infiltration, […], mad 5=severe infiltration. Bone erosion was scored on a 0-5 scale by viewing H&E ankle sections, with 0=no or normal bone resorption, 1=small areas of resorption, 2=more numerous areas of resorption, 3=obvious resorption, 4=full thickness defects in the bone without distortion of the profile, 5=full thickness defects in the bone with distortion of the profile. H&E ankle stained sections were scored on a 0-5 scale for pannus formation, with 0=no pannus formation, 1=minimal pannus formation, 2=mild pannus formation, 3=moderate pannus formation, 4=marked pannus formation, and 5=severe pannus formation. H&E and Safranin 0 and methyl green sections were scored on a 0-5 scale for cartilage damage, with 0=no damage, 1-2=superficial cartilage destruction, 3-4=cartilage destruction to middle zone, 5=cartilage destruction to tide mark. Polymorphonuclear (PMN) leukocyte infiltration: 0=no PMNs, 1=rare scattered PMNs, 2=more frequent scattered PMNs, 3=small clusters of PMNs, 4=larger clusters of PMNs, mad 5=sheets of PMNs (abscess). Histopathological scoring was conducted on an Olympus BX40 microscope (1000×). Photographs were taken on a Nikon microscope equipped with the Nikon digital camera DMX 1200.
To accurately assess the degree of inflammation and destruction of cartilage and bone, ankle sections were examined using a histopathological scoring system on hematoxylin and eosin (H& E) or safranin O-methyl green stained ankle sections.

[4] = tested on: IL-1β, TNFα, MCP-1, KC, MMP-3; assay: ELISA of pro-inflammatory molecules in ankle extracts; assay type: in vivo, mouse; parameters: IL-1β / TNFα / MCP-1 / KC / MMP-3: unit not given here; settings: ankle joints, seven days post-serum transfer; mean ± standard error
Method: as §1
For detection of mouse IL-1β, TNFα, MCP-1, KC, or MMP-3 in ankle extracts, sandwich ELISAs were performed according to the manufacturer's instructions (R & D Systems, Minneapolis, Minn.). The sensitivity for all cytokines was 15.6 pg/mL for IL-1β and KC, 7.813 pg/mL for TNFα and MCP-1, and 0.312 ng/mL for MMP3. ELISAs were quantitated by absorbance at 450 nm on a microplate reader (BioRad, Hercules, Calif.). Data obtained using ELISA on ankle extracts were normalized by the total protein concentration (μg/μL) for each individual ankle extract.
Mice were euthanized at seven days post-serum transfer. Ankle joints from each mouse were isolated, snap frozen, grounded into a fine powder, lysed, and examined for IL-1β, TNFα, MCP-1, KC, and MMP-3 production using an ELISA. Data are shown as μg/μL per joint. Values represent the mean±standard error, which were compared by Student's t-test.

IL-1β, TNFα, MCP-1, KC = assay: Circulating cytokine levels in serum; assay type: in vivo, mice; settings: between saline, TAT-inactive BH3 and TAT-BH3 groups
Method: as §1
TAT-BH3 peptides treatment reduces the numbers of myeloid cells in arthritic joints. […] To this end, the numbers of polymorphonuclear cell and macrophages in saline and BH3 peptide arthritic mice were quantified. […]

[5] = Toxicity: serum ALP, AST, ALT, blood urea nitrogen and liver histology in arthritic mice; assay type: in vivo; settings: liver sections of arthritic mice
Method: as §1, §2

peripheral blood cells = assay: Peripheral blood cell counts (flow cytometry, hematology analyzer); assay type: in vivo, mice; settings: peripheral blood, mean ± standard error
Method: Peripheral blood and bone marrow were isolated from mice following euthanasia. Total leukocyte numbers were determined using an automated hematology analyzer ABX Pentra 60 (Diamond Diagnostics, Inc, Holliston, Mass.). The red blood cells in peripheral blood were lysed and the remaining cells were fixed with BD FACS lysing solution (BD Biosciences, Pharmingen) following incubation with antibodies. Bone marrow cells were isolated by flushing Dulbecco's Modified Eagle Medium (DMEM) (Gibco, Grand Island, N.Y.) through the tibias and red blood cells were lysed with BD PharM Lyse (BD Biosciences, Pharmingen) prior to incubation with antibodies. Cells with incubated with Fc Block (BD Biosciences, Pharmingen) then stained with fluorochrome conjugated antibodies to CD45, CD11b, Gr-1, CD62L, Ly-6C, Ly-6G, CD31 (BD Biosciences, Pharmingen) or isotype control antibodies for 30 minutes. Cells were acquired on a BD LSRII (BD Biosciences, Pharmingen) using Diva Software at the Saint Louis University Core Flow Cytometry Facility. All analysis was performed using FlowJo software (Tree Star Inc.).
Peripheral blood was isolated by cardiac sticks. Cells were blocked for 10 minutes with Fc block and then stained with anti-CD45, anti-CD19, anti-CD3, anti-CD4, anti-CDS, anti-CD11b, anti-Gr-1, and anti-CD62L antibodies for 30 minutes. Platelets and RBCs were determined on an automated hematology analyzer ABX Pentra 60. Following incubation with antibodies red blood cells were lysed and cells were fixed with Becton Dickenson FACS lysing solution.

**Q.** What does the source list for `CN(C)CC[C@H](CSc1ccccc1)Nc1ccc(S(=O)(=O)NC(=O)c2ccc(N3CCN(Cc4ccccc4-c4ccc(Cl)cc4)CC3)cc2)cc1[N+](=O)[O-]` [ABT-737]?
**A.** effect on cells that express high levels of Mcl-1 [1]: no effect; effect on platelet numbers (platelets): dramatic effect

**Q.** Which results are given for `CC[C@H](C)[C@H](NC(=O)[C@H](CCCNC(=N)N)NC(=O)[C@H](CCCNC(=N)N)NC(=O)[C@H](C)NC(=O)[C@H](CCC(=O)O)NC(=O)[C@H](CCC(N)=O)NC(=O)[C@H](C)NC(=O)[C@@H](NC(=O)[C@H](Cc1c[nH]c2ccccc12)NC(=O)[C@@H](NC(=O)[C@H](CCC(=O)O)NC(=O)[C@H](CCCNC(=N)N)NC(=O)[C@H](CCCNC(=N)N)NC(=O)[C@H](CCCNC(=N)N)NC(=O)[C@H](CCCN)NC(=O)[C@H](CCCNC(=N)N)NC(=O)[C@H](CCCNC(=N)N)NC(=O)[C@H](CCCCN)NC(=O)[C@H](CCCCN)NC(=O)[C@H](CCCNC(=N)N)NC(C)=O)[C@@H](C)CC)[C@@H](C)CC)C(=O)NCC(=O)N[C@@H](C)C(=O)N[C@@H](CCC(=O)O)C(=O)N[C@@H](Cc1ccccc1)C(=O)N[C@@H](CC(N)=O)C(=O)N[C@@H](C)C(=O)N[C@@H](Cc1ccc(O)cc1)C(=O)N[C@@H](Cc1ccc(O)cc1)C(=O)N[C@@H](C)C(=O)N[C@@H](CCCNC(=N)N)C(=O)O` [reference compound] (Ac-RKKRR[Orn]RRREIWIAQEARRIGAEFNAYYAR-OH)?
**A.** change in ankle circumference ([2]; day 2 after K/B×N serum, 2 mg/kg i.p.): 1.6 mm; difference in arthritis (ankle circumference) versus saline ([2]; saline vs TAT-inactive BH3): no statistical difference; difference in histological scores versus saline [3]: no statistical difference; IL-1β [4]: 824 ± 103; KC [4]: 428 ± 45; MCP-1 [4]: 196 ± 17; MMP-3 [4]: 17 ± 4; TNFα [4]: 4.4 ± 0.3; circulating levels of IL-1β, TNFα, MCP-1, and KC in serum (IL-1β, TNFα, MCP-1, KC): no differences; liver histology [5]: no gross histologic abnormalities; Platelets (peripheral blood cells; hematology analyzer): 1305.75 ± 70.03 (1E6); RBCs (peripheral blood cells; hematology analyzer): 9.84 ± 0.22 (1E6); B-cells+ (peripheral blood cells): 2.38 ± 0.21 (1E6); CD4+ T-cells (peripheral blood cells): 1.15 ± 0.10 (1E6); CD8+ T-cells (peripheral blood cells): 0.72 ± 0.06 (1E6); Inflammatory monocytes (peripheral blood cells): 0.25 ± 0.03 (1E6); N-K-cells (peripheral blood cells): 0.19 ± 0.13 (1E6); Resident Monocytes (peripheral blood cells): 0.14 ± 0.01 (1E6); T-cells (peripheral blood cells): 1.94 ± 0.17 (1E6); Total Leukocytes (peripheral blood cells): 6.1 ± 0.18 (1E6)
